Results as given in patent US10610522B2, “Methods for retreating irritable bowel syndrome (IBS)” (Salix Pharmaceuticals, Inc., priority 2014, dated 2020).
Read-outs that look alike come from different tables or passages of the source.

How the values were obtained:
IBS-D = assay: TARGET 3: repeat treatment with rifaximin 550 mg TID in IBS-D (open-label, double-blind first and second repeat treatment); assay type: in vivo, human
Description: This study consists of several treatment phases, and is initiated with a placebo run-in treatment during the Screening/Treatment 1 Phase. The placebo run-in is included in the design to disqualify subjects from enrollment if they no longer meet IBS symptom related entry criteria at the end of the Screening/Treatment 1 Phase (e.g., spontaneous improvement). […] Subjects who achieve treatment success in both IBS-related abdominal pain and stool consistency during at least two of the four week follow-up period are classified as responders and enter a treatment free Maintenance Phase 1. Non-responders are withdrawn from the study to provide an enriched population of subjects who respond to treatment with rifaximin. The treatment free Maintenance Phase 1 is variable in time (up to 18 weeks in total) and depends upon recurrence (e.g., absence of treatment success in both IBS related abdominal pain or stool consistency).
The subjects remain blinded to placebo received during Treatment 1. Subjects with recurrence enter the DBR Treatment 3 Phase.
Subjects are considered to have met recurrence criteria or have “relapsed” when they experience the recurrence of abdominal pain OR stool consistency for at least 3 weeks during a 4-week follow-up period. […] Therefore a recurrence of both symptoms is not required to define a “relapse”.
The study was a multi-center, randomized, double-blind, placebo-controlled trial in adult subjects with non-C IBS. The study duration was up to 51 weeks, with approximately 600 patients.
The Treatment 1 or Screening phase is the 7-13 days prior to study Day 1.
The proportion of subjects who were responders to repeat treatment in both IBS-related abdominal pain and stool consistency were evaluated during the 4 week treatment-free follow-up (Primary Evaluation Period, PEP) in the DBR (Double Blind Repeat) of the Treatment 3 Phase.
In this analysis, when a weekly response was absent for either the abdominal pain or stool consistency component for at least 3 weeks during a rolling consecutive 4-week assessment period; the subject is considered to have recurrence.
Further, the proportion of subjects who were responders to repeat treatment in both IBS-related abdominal pain and stool consistency during the PEP in the DBR Treatment 3 Phase and that had no recurrence through the end of Maintenance Phase 2 were assessed.
Further, the proportion of subjects were assessed who were responders to repeat treatment for IBS-related bloating during the PEP in the DBR Treatment 3 Phase.
The intent-to-treat (ITT) population included subjects who were randomized and received at least one dose of the study drug in the Treatment 3/DBR Treatment Phase. These subjects served as the primary analysis population. An efficacy analysis was conducted on the ITT population.
Double-Blind Phase of the Study (Response type—durable and maintained): Proportion that responded to the composite FDA Endpoint of relief in both IBS-related Abdominal Pain AND Stool Consistency during the PEP in the first repeat double-blind, placebo controlled treatment phase AND continued to respond without recurrence through the end of Week 6 following the second repeat double-blind, placebo controlled treatment.
Double-Blind Repeat Treatment and follow-up (Response type—durable): Proportion that responded to the composite FDA Endpoint of relief in both IBS-related Abdominal Pain AND Stool Consistency during the PEP in the first repeat double-blind, placebo controlled treatment phase AND continued to respond without recurrence through the end of Week 12, independent of any additional treatment.
At the end of Week 6, patients were assessed for response to treatment. […]

IBS = conditions: cited from earlier work
non-constipation IBS = assay: Study 2 (TARGET 2): rifaximin 550 mg TID 14 days vs placebo in non-C IBS, 10-week follow-up; assay type: in vivo, human; conditions: at least 2 weeks during PEP
P-glycoprotein = target: T1, P-glycoprotein (Homo sapiens, UniProt P08183); assay: Bidirectional permeability and efflux ratio of rifaximin in Caco-2 cells with P-glycoprotein inhibitors; assay type: in vitro ADME; conditions: for Decrease of rifaximin ER in presence of GF120918 (0.5 μM) and verapamil (60 μM): rifaximin 5 μM
T1 construct: Caco-2 cells, a human epithelial colorectal adenocarcinoma cell line; endogenous in cells; host or cells: Caco-2
T1 sequence (P08183 whole entry): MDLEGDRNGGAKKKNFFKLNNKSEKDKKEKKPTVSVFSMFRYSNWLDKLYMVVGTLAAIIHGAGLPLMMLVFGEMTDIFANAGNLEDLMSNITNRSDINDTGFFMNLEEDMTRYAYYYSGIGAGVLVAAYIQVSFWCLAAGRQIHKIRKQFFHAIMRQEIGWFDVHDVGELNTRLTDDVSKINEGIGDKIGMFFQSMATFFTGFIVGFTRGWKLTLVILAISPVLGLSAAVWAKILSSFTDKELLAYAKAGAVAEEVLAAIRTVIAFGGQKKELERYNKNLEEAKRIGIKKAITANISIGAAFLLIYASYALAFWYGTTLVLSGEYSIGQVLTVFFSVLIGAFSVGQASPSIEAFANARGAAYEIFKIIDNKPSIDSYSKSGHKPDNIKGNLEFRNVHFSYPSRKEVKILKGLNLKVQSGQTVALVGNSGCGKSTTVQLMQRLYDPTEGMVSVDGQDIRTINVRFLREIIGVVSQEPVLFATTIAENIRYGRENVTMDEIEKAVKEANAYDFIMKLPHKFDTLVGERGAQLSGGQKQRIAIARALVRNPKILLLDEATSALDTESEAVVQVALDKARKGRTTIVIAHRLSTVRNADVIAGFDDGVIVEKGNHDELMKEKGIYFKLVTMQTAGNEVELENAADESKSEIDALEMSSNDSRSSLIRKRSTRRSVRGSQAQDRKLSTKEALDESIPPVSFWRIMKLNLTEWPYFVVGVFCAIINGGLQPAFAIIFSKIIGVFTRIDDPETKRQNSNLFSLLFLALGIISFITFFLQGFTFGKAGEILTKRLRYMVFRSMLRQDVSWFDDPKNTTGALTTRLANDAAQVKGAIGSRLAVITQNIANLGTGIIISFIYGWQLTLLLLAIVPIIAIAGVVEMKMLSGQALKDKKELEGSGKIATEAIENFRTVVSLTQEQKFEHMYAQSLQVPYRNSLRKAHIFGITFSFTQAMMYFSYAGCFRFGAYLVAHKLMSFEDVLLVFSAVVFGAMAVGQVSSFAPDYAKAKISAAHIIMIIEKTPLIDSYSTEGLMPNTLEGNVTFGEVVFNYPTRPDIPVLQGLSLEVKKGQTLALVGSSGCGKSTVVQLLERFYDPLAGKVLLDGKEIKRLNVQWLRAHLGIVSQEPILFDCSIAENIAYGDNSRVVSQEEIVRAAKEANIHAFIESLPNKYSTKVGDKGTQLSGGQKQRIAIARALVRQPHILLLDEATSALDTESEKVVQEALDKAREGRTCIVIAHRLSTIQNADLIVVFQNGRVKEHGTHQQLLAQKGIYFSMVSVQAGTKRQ
Description: The ER is the ratio of efflux permeability (basolateral to apical, B-A) to absorptive permeability (apical to basolateral, A-B), and values >1 are indicative of greater efflux than absorption.

[1] = TARGET 3, month following repeat treatment, Worst-Case Analysis, 550 mg TID, N = 328
[2] = Pimentel, et al., responders/retreated
[3] = Yang, et al, responders/retreated

## CO[C@H]1/C=C/O[C@@]2(C)Oc3c(C)c(O)c4c(O)c(c5c(nc6cc(C)ccn65)c4c3C2=O)NC(=O)/C(C)=C\C=C\[C@H](C)[C@H](O)[C@@H](C)[C@@H](O)[C@@H](C)[C@H](OC(C)=O)[C@@H]1C [Rifaximin, (2S,16Z,18E,20S,21S,22R,23R,24R,25S,26S,27S,28E)-5,6,21,23,25 Pentahydroxy-27-methoxy-2,4,11,16,20,22,24,26-octamethyl-2,7-(epoxypentadeca-(1,11,13)trienimino) benzofuro (4,5-e) pyrido(1,2-a) benzimidazole-1,15(2H)-dione,25-acetate]
IBS-D; TARGET 3
  Median time to recurrence of IBS-related symptoms after initial 14-day treatment: 8 weeks
IBS-D; TARGET 3, 550 mg TID 14 d, 1074 of 2579 patients
  Patients who responded to initial open-label treatment (abdominal pain and/or stool consistency): 41.6%
IBS-D; TARGET 3, 4 weeks following first repeat treatment, 550 mg TID
  Monthly responders for abdominal pain and stool consistency after first repeat treatment: 33%
IBS-D; [1]
  Abdominal Pain Responders: %: (51) %
  Abdominal Pain Responders: n: 166
  Abdominal Pain and Stool Consistency Responders: %: (33) %
  Abdominal Pain and Stool Consistency Responders: n: 107
  Stool Consistency Responders: %: (42) %
  Stool Consistency Responders: n: 138
IBS-D; TARGET 3, no recurrence 10 weeks after repeat treatment
  Sustained response for abdominal pain and stool consistency: 17%
IBS-D; TARGET 3, no recurrence through second repeat treatment phase (20 weeks)
  Prevention of recurrence of abdominal pain and stool consistency responders: 13%
IBS-D; TARGET 3, number of patients
  Responders without recurrence of abdominal pain or stool consistency symptoms for 22 weeks following initial treatment: 382
IBS-D; Weeks 3 through 6, Second Repeat Treatment Phase, LOCF Analysis
  IBS-Related Abdominal Pain Responders: (52.5%)
IBS-D; Weeks 3 to 6, Double Blind First Repeat Treatment Phase, LOCF Analysis, ITT
  IBS-Related Abdominal Pain and Stool Consistency Responders: 116/328
IBS-D; during repeat treatment
  Adverse reaction: ALT increased: 2%
  Adverse reaction: nausea: 2%
IBS-D; repeat treatments 550 mg TID
  Adverse event rate of repeat treatments: generally below that of placebo
IBS-D; up to 3 treatment cycles
  Effects on pathogen emergence, pathogen susceptibility, microbial population in stool or skin swab samples: no evidence of significant effects
Overall in the study
  Severe TEAEs, SAEs, deaths: no severe TEAEs, SAEs, or deaths
Rifaximin treatment period (7 subjects)
  Subjects with a TEAE: 25%
IBS; Jolley (~1 yr), IBS-D patients, 1200 mg/day for 10 days
  Initial treatment response: 56% (25/45)
IBS; Jolley, IBS-D patients, 2400 mg/day for 10 days
  Re-treatment response (at least 1): (at least 1): 54% (13/24)
IBS; Jolley, IBS-D patients
  Complete (>90%) relief: 11% (5/45)
  Complete (>90%) relief upon re-treatment: 13% (3/24)
IBS; Pimentel, et al. (>6 yr), 169 Non-C IBS patients (Rome III), 400-550 mg TID for 14 days
  Initial treatment response: 75% (111/148)
IBS; Pimentel, et al., 1 to 6 re-treatments
  Re-treatment response (at least 1): (at least 1): >75%
IBS; Pimentel, et al.
  Duration of benefit: ~4 m
IBS; [2]
  Re-treatment response, First: 54/65
  Re-treatment response, Second: 38/40
  Re-treatment response, Third: Third: 17/18
IBS; Weinstock (>6 yr), 99 Non-C IBS patients (Rome II), 1200-1650 mg/day for 10 days
  Initial treatment response: 75% (74/99)
IBS; Weinstock
  Patients who did not require re-treatment: 27% did not require
  Patients who maintained response for mean 1.6 y: 41% maintained response
  Patients with only 1-2 retreatment in 2 y: 51% only 1-2 retreatment
IBS; Yang, et al (1.25 yr), 84 IBS patients (Rome I), 1200 mg/day for 10 days
  Initial treatment response: 69% (58/84)
IBS; Yang, et al, 1200 mg/day for 10 days
  Re-treatment response (at least 1): (at least 1): 100%
IBS; [3]
  Re-treatment response, First: 16/16
  Re-treatment response, Second: 4/4
non-constipation IBS
  Responders: abdominal pain reduction of 1 point in weekly median: 62%
  Responders: abdominal pain reduction of 2 point in mean: 25%
  Responders: overall reduction of median weekly abdominal pain by >= 75%: 20%
P-glycoprotein; Caco-2 cells
  Maximum inhibition of rifaximin efflux permeability due to P-glycoprotein inhibition by verapamil: 12 fold
P-glycoprotein; Caco-2 cells and membrane vesicles
  P-glycoprotein substrate status: substrate for P-glycoprotein
P-glycoprotein; human, Caco-2 monolayers, 0.5, 5, and 50 μM, read-out: Net permeability in the absorptive direction
  Papp A→B: ~1 ×10⁻⁶ cm/s
P-glycoprotein; Round 1
  Decrease of rifaximin ER in presence of GF120918 (0.5 μM) and verapamil (60 μM): 8- to 12 fold
P-glycoprotein; Round 2
  Decrease of rifaximin ER in presence of GF120918 (0.5 μM) and verapamil (60 μM): 3- to 6 fold
